Measurements as given in paper PMC10709440, “High-throughput ligand profile characterization in novel cell lines expressing seven heterologous insect olfactory receptors for the detection of volatile plant biomarkers” (Scientific Reports, 2023).

Columns and labels:
Drosophila OR13a = target: T1, Drosophila OR13a (Drosophila melanogaster, UniProt Q9VXL0); test: Calcium ion fluorescence (GCaMP6) assay, OR13a stable HEK293 cell line; type: cell-based; settings: for activation at 1 µM: HEK293, read-out: OR13a Average response (VUAA1-normalized), 1 μM VOC; for activation at 1 µM / activation at 10 µM / activation at 100 µM: 50 μM VUAA1 = 1, responses not exceeding 0.05 considered 0; for activation at 10 µM: HEK293, read-out: OR13a Average response (VUAA1-normalized), 10 μM VOC; for activation at 100 µM: HEK293, read-out: OR13a Average response (VUAA1-normalized), 100 μM VOC; for OR13a response (VUAA1-normalized) at 1 μM / OR13a response (VUAA1-normalized) at 10 μM / OR13a response (VUAA1-normalized) at 100 μM: OR13a cell line; for OR13a response (VUAA1-normalized) at 1 μM: VOC concentration 1 μM; for OR13a response (VUAA1-normalized) at 10 μM: VOC concentration 10 μM; for OR13a response (VUAA1-normalized) at 100 μM: VOC concentration 100 μM
T1 construct: expressed in transfected cells
T1 sequence (Q9VXL0 1-418): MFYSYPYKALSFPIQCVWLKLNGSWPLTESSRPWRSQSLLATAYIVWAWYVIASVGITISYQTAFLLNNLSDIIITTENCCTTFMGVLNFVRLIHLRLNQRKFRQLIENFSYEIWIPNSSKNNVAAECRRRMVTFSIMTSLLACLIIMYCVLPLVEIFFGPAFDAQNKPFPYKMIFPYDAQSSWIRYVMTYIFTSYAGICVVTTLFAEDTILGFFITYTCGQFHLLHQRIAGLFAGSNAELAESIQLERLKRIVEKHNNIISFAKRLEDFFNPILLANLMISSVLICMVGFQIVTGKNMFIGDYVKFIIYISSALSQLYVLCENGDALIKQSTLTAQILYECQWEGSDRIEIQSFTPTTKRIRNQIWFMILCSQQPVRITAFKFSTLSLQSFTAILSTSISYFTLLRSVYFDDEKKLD
T1 sequence (Q9VNB5 1-486 partner): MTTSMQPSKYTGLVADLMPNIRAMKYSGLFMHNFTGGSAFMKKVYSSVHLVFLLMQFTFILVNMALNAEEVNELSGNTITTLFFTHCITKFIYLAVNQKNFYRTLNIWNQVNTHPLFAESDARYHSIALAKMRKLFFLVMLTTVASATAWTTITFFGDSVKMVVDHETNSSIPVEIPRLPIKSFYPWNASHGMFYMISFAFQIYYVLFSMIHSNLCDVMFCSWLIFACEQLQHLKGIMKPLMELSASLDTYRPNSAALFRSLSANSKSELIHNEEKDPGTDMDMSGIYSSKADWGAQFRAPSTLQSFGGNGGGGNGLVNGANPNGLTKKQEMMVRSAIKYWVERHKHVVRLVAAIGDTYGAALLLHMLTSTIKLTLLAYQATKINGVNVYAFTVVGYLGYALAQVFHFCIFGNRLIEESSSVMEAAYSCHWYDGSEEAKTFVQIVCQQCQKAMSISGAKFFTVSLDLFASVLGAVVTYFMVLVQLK
Summary of the method: (§1)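 Responses are VUAA1-normalized ΔF: each VOC-evoked calcium signal, (FMAX−F0)/F0 over 30 s after injection, divided by the same line's mean 50 µM VUAA1 response. Cells were doxycycline-induced HEK293 with GCaMP6 and the cognate Drosophila OR, in HEPES buffer pH 7.3; ligands tested 0.01–100 μM.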

Drosophila OR47a = target: T2, Drosophila OR47a (Drosophila melanogaster, UniProt P81921); test: Calcium ion fluorescence (GCaMP6) assay, OR47a stable HEK293 cell line; type: cell-based; settings: for OR47a response (VUAA1-normalized) at 1 μM / OR47a response (VUAA1-normalized) at 10 μM / OR47a response (VUAA1-normalized) at 100 μM / Average response: OR47a cell line; for OR47a response (VUAA1-normalized) at 1 μM: VOC concentration 1 μM; for OR47a response (VUAA1-normalized) at 10 μM: VOC concentration 10 μM; for OR47a response (VUAA1-normalized) at 100 μM: VOC concentration 100 μM; for Average response: mean of biological replicates
T2 construct: expressed in transfected cells
T2 sequence (P81921 1-385): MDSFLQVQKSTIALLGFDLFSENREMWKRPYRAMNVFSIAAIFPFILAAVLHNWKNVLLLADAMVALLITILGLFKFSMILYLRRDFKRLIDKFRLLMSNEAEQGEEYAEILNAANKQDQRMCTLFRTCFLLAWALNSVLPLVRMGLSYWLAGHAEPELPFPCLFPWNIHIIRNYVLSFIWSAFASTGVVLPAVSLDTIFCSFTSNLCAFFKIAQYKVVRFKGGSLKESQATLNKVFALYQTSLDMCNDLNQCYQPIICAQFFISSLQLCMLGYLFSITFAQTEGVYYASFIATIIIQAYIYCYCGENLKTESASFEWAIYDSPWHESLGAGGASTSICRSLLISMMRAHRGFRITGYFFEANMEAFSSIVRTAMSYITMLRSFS
T2 sequence (Q9VNB5 1-486 partner): T1 sequence (Q9VNB5 1-486 partner)
Summary of the method: as §1

[1] = ligand concentration 1 (unit not given), threshold 0.05, below shown as 0
[2] = ligand concentration 10 (unit not given), threshold 0.05, below shown as 0
[3] = ligand concentration 100 (unit not given), threshold 0.05, below shown as 0
[4] = ligand concentration 1 (unit not given), 0.05 threshold, values below shown as 0
[5] = ligand concentration 10 (unit not given), 0.05 threshold, values below shown as 0
[6] = ligand concentration 100 (unit not given), 0.05 threshold, values below shown as 0
[7] = HEK293, read-out: OR47a Average response (VUAA1-normalized)

| Structure (SMILES) | activation at 1 µM (Drosophila OR13a) [%] | activation at 10 µM (Drosophila OR13a) [%] | activation at 100 µM (Drosophila OR13a) [%] | OR13a response (VUAA1-normalized) at 1 μM (Drosophila OR13a) | OR13a response (VUAA1-normalized) at 10 μM (Drosophila OR13a) | OR13a response (VUAA1-normalized) at 100 μM (Drosophila OR13a) | DF norm AVERAGE OR13a (Drosophila OR13a; [1]) | DF norm AVERAGE OR13a (Drosophila OR13a; [2]) | DF norm AVERAGE OR13a (Drosophila OR13a; [3]) | OR47a response (VUAA1-normalized) at 1 μM (Drosophila OR47a) | OR47a response (VUAA1-normalized) at 10 μM (Drosophila OR47a) | OR47a response (VUAA1-normalized) at 100 μM (Drosophila OR47a) | Average response (Drosophila OR47a; odorant cc. 1 µM) | Average response (Drosophila OR47a; odorant cc. 10 µM) | Average response (Drosophila OR47a; odorant cc. 100 µM) | DF norm AVERAGE OR47a (Drosophila OR47a; [1]) | DF norm AVERAGE OR47a (Drosophila OR47a; [2]) | DF norm AVERAGE OR47a (Drosophila OR47a; [3]) | other results |
| --- | --- | --- | --- | --- | --- | --- | --- | --- | --- | --- | --- | --- | --- | --- | --- | --- | --- | --- | --- |
| COC(=O)c1ccccc1 [methyl benzoate] | 0 | 0 | 6 | 0.00 | 0.00 | 0.06 | 0 | 0 | 0.06097 | 0.00 | 0.00 | 0.06 | 0.0138 | 0.00 | 0.06 | 0 | 0 | 0.05948 |  |
| C=C1CCC2(C(C)C)CC12 (stereo not drawn) [sabinene] | 0 | 0 | 0 | 0.00 | 0.00 | 0.00 | 0 | 0 | 0 | 0.00 | 0.00 | 0.00 | 0.00 | 0.00 | 0.00 | 0 | 0 | 0 |  |
| CC/C=C\CCOC(C)=O [z3-hexenyl acetate] | 0 | 2.61 | 9 |  |  |  |  |  |  |  |  |  | 0.35 | 0.67 | 0.76 |  |  |  | DF norm AVERAGE OR13a (Drosophila OR13a; [4]): 0; DF norm AVERAGE OR13a (Drosophila OR13a; [5]): 0; DF norm AVERAGE OR13a (Drosophila OR13a; [6]): 0.09283; activation at 1 µM (Drosophila OR47a; [7]): 35%; activation at 10 µM (Drosophila OR47a; [7]): 67%; activation at 100 µM (Drosophila OR47a; [7]): 76%; DF norm AVERAGE OR47a (Drosophila OR47a; [4]): 0.3542; DF norm AVERAGE OR47a (Drosophila OR47a; [5]): 0.669; DF norm AVERAGE OR47a (Drosophila OR47a; [6]): 0.7586 |
| OCCc1ccccc1 [phenethyl alcohol] | 6.58 | 6 | 3 | 0.0658 | 0.06 | 0.00 | 0.06578 | 0.05738 | 0 | 0.0564 | 0.0644 | 0.057 | 0.0564 | 0.0644 | 0.057 | 0.05643 | 0.06438 | 0.05701 |  |
